Test results: patent US12310973B2, “Administration and dosage of diaminophenothiazines” (WisTa Laboratories Ltd., priority 2016, dated 2025)

Tested on: mild to moderate AD patients
Experiment: Phase 3 trial in mild to moderate AD: MRI volumetry (LVV, TPV, HV)
Format: in vivo, human
Conditions: for HV, Estimate (difference vs control) / LVV, Estimate (difference vs control) / TPV, Estimate (difference vs control): Table 5
Excerpt: The co-primary efficacy outcomes were change from baseline in 11-item Alzheimer's Disease Assessment Scale—cognitive subscale (ADAS-cog) and the 23-item Alzheimer's Disease Cooperative Study Activities of Daily Living (ADCS-ADL). Magnetic resonance imaging (MRI) volumetry was chosen as the principal secondary outcome to support a potential effect on the rate of brain atrophy (Fox et al., 1997; Ridha et al., 2008). Change in Lateral Ventricular Volume (LVV), as measured by the Ventricular Boundary Shift Integral (VBSI), (Salloway et al., 2014) was chosen as the principal measure as it provides high-contrast boundaries for measurement and is less affected by motion artefacts than whole brain or smaller structures. Key supportive topographical measures (temporo-parietal (TPV) and hippocampal volume (HV)) are also reported.
ADAS-cog and ADCS-ADL assessments were performed at baseline and every 13 weeks thereafter, with change at 65 weeks (the final on-treatment visit) the primary efficacy measures. These were repeated at the final off-treatment follow-up visit at Week 69. Secondary efficacy measures included Clinical Global Impression of Change (ADCS-CGIC, administered by an independent rater); MMSE, administered on screening and at Weeks 26, 52, 65 and 69. Brain MRI scans were performed at baseline/screening and every 13 weeks using a standardized protocol including volumetric 3D T1-weighted data consistent with ADNI recommendations, FLAIR, T2* Gradient Echo and T2-weighted sequences. Diffusion-Weighted Imaging was also available at screening in order to exclude patients with co-existing pathology that would lead to a diagnosis other than probable AD. Each site was first qualified ensuring standardised acquisition protocol, patient handling and data management. MRI data were centrally collected by Imaging Corelab (Bioclinica). Data were centrally reviewed by RadMD for eligibility and safety (Amyloid Related Imaging Abnormalities, or ARIA monitoring) on an on-going basis. Volumetric 3DT1 data were also reviewed centrally in order to measure (using a boundary shift integral (BSI) technique; Salloway et al., 2014) change in LVV as principal secondary outcome measure, and as exploratory endpoints temporo-parietal volume (TPV), whole brain volume (WBV) and hippocampal volume (HV, estimated as the mean of left and right) (Wischik et al., 2016). Additional exploratory endpoints included change in glucose uptake in the temporal lobe, assessed using ^18F-fluorodeoxyglucose positron emission tomography (FDG-PET) performed during screening and at Weeks 39 and 65 in a subset of patients in sites with this imaging capability. Changes in cerebrospinal fluid biomarkers of Alzheimer's disease, including total tau, phospho-tau and amyloid-β1-42, were explored using cerebrospinal fluid samples that were collected at baseline and Week 65 (or early termination visit). Lumbar punctures were performed only in subjects who were themselves able to provide consent specifically for this procedure.
The primary efficacy analyses of change from baseline in ADAS-cog and ADCS-ADL scores were conducted in the modified intent-to-treat (mITT) population (all randomised patients who took at least one dose of study treatment and had at least one post-baseline, on-treatment efficacy assessment). The primary analysis was specified as a mixed model repeated-measures (MMRM) analysis with an unstructured covariance matrix and no imputation for missing data. The model included categorical visit (5 levels corresponding to assessments at weeks 13, 26, 39, 52 and 65), treatment (3 levels corresponding to control, 75 mg b.i.d. and 125 mg b.i.d.), treatment-by-visit interaction, and the stratification variables as additive terms, and baseline ADAS-cog or ADCS-ADL as a covariate. A similar exploratory analysis was specified in the Statistical Analysis Plan (SAP) with the AChEI/Mem covariate as an interaction term with treatment and as an interaction term with visit. […]

[1] = Table 5, AChEI/Mem as interaction term, control arm (4 mg b.i.d.)
[2] = Table 6 post-hoc, control-arm subjects, 4 mg b.i.d. + AChEI/Mem
[3] = Table 6 post-hoc, 4 mg b.i.d. alone vs 4 mg b.i.d. + AChEI/Mem
[4] = Table 7, mild AD, 4 mg b.i.d. + AChEI/Mem (control-arm subjects)
[5] = Table 7, mild AD, 4 mg b.i.d. alone vs 4 mg b.i.d. + AChEI/Mem
[6] = Table 7, mild AD, 75 mg b.i.d. alone vs control arm as randomised
[7] = Table 7, mild AD, 125 mg b.i.d. alone vs control arm as randomised
[8] = Table 7, mild AD, control arm as randomised (4 mg b.i.d.)
[9] = Table 7, moderate AD, 4 mg b.i.d. + AChEI/Mem (control-arm subjects)
[10] = Table 7, moderate AD, 4 mg b.i.d. alone vs 4 mg b.i.d. + AChEI/Mem
[11] = Table 7, moderate AD, 75 mg b.i.d. alone vs control arm as randomised
[12] = Table 7, moderate AD, 125 mg b.i.d. alone vs control arm as randomised
[13] = Table 7, moderate AD, control arm as randomised (4 mg b.i.d.)

CN(C)c1ccc2c(c1)Sc1cc(N(C)C)ccc1N2 [LMTM, leuco-methythioninium bis(hydromethanesulfonate)]
Increase in TPV relative to control (75 mg b.i.d. monotherapy): 31%±8%
Reduction in LVV (progression of atrophy) relative to control (75 mg b.i.d. monotherapy): 38%±9%
Increase in TPV relative to control (125 mg b.i.d. monotherapy): 26%±8%
Reduction in LVV (progression of atrophy) relative to control (125 mg b.i.d. monotherapy): 33%±9%
HV, Estimate (change from baseline) [1]: −115.3 mm^3
LVV, Estimate (change from baseline) [1]: 7,187 mm^3
TPV, Estimate (change from baseline) [1]: −1529 mm^3
HV, Estimate (difference vs control) (75 mg b.i.d. + AChEI/Mem): −2.0 mm^3
LVV, Estimate (difference vs control) (75 mg b.i.d. + AChEI/Mem): −273 mm^3
TPV, Estimate (difference vs control) (75 mg b.i.d. + AChEI/Mem): −39 mm^3
HV, Estimate (difference vs control) (75 mg b.i.d. monotherapy): 9.5 mm^3
LVV, Estimate (difference vs control) (75 mg b.i.d. monotherapy): −2,707 mm^3
TPV, Estimate (difference vs control) (75 mg b.i.d. monotherapy): 472 mm^3
HV, Estimate (difference vs control) (125 mg b.i.d. + AChEI/Mem): −7.4 mm^3
LVV, Estimate (difference vs control) (125 mg b.i.d. + AChEI/Mem): −306 mm^3
TPV, Estimate (difference vs control) (125 mg b.i.d. + AChEI/Mem): −12 mm^3
HV, Estimate (difference vs control) (125 mg b.i.d. monotherapy): 20.0 mm^3
LVV, Estimate (difference vs control) (125 mg b.i.d. monotherapy): −2,347 mm^3
TPV, Estimate (difference vs control) (125 mg b.i.d. monotherapy): 405 mm^3
HV, Estimate (change from baseline) [2]: −117.8 mm^3
LVV, Estimate (change from baseline) [2]: 7,426 mm^3
TPV, Estimate (change from baseline) [2]: −1,596 mm^3
HV, Estimate (difference) [3]: 19.5 mm^3
LVV, Estimate (difference) [3]: −1,894 mm^3
TPV, Estimate (difference) [3]: 534 mm^3
HV, Estimate (change from baseline) [4]: −119.5 mm^3
LVV, Estimate (change from baseline) [4]: 6,167 mm^3
TPV, Estimate (change from baseline) [4]: −1,398 mm^3
HV, Estimate (difference) [5]: 46.7 mm^3
LVV, Estimate (difference) [5]: −2,655 mm^3
TPV, Estimate (difference) [5]: 722 mm^3
HV, Estimate (difference) [6]: 16.9 mm^3
LVV, Estimate (difference) [6]: −2,549 mm^3
TPV, Estimate (difference) [6]: 392 mm^3
HV, Estimate (difference) [7]: 40.5 mm^3
LVV, Estimate (difference) [7]: −2,695 mm^3
TPV, Estimate (difference) [7]: 439 mm^3
HV, Estimate (change from baseline) [8]: −115.8 mm^3
LVV, Estimate (change from baseline) [8]: 5,789 mm^3
TPV, Estimate (change from baseline) [8]: −1,309 mm^3
HV, Estimate (change from baseline) [9]: −116.6 mm^3
LVV, Estimate (change from baseline) [9]: 8,143 mm^3
TPV, Estimate (change from baseline) [9]: −1,697 mm^3
HV, Estimate (difference) [10]: −2.4 mm^3
LVV, Estimate (difference) [10]: −940 mm^3
TPV, Estimate (difference) [10]: 370 mm^3
HV, Estimate (difference) [11]: 3.6 mm^3
LVV, Estimate (difference) [11]: −2,251 mm^3
TPV, Estimate (difference) [11]: 469 mm^3
HV, Estimate (difference) [12]: 2.2 mm^3
LVV, Estimate (difference) [12]: −1,703 mm^3
TPV, Estimate (difference) [12]: 293 mm^3
HV, Estimate (change from baseline) [13]: −116.9 mm^3
LVV, Estimate (change from baseline) [13]: 8,023 mm^3
TPV, Estimate (change from baseline) [13]: −1,649 mm^3
Hippocampus volume benefit (increase) (mild patients, LMTM monotherapy): 35.5 mm^3
